Source: article PMC8843100, “Development of newly synthesised quinazolinone-based CDK2 inhibitors with potent efficacy against melanoma” (Journal of Enzyme Inhibition and Medicinal Chemistry, 2022)

Assays:
Assay in all cases: NCI-60 single dose screen, sulforhodamine B
Type in all cases: cell-based, human
A498 = details: Renal cancer A498; single dose 10^−5 M
Method in brief: (§1)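 Single dose of 10 µM (from DMSO solution) added one day after seeding; cells incubated a further 2 days, then fixed and stained with sulforhodamine B. Growth inhibition calculated against untreated cells and a time-zero control.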

A549/ATCC = details: Non-small cell lung cancer A549/ATCC; single dose 10^−5 M
Method in brief: as §1

ACHN = details: Renal cancer ACHN; single dose 10^−5 M
Method in brief: as §1

BT-549 = details: Breast cancer BT-549; single dose 10^−5 M
Method in brief: as §1

COLO 205 = details: Colon cancer COLO 205; single dose 10^−5 M
Method in brief: as §1

EKVX = details: Non-small cell lung cancer EKVX; single dose 10^−5 M
Method in brief: as §1

HCC-2998 = details: Colon cancer HCC-2998; single dose 10^−5 M
Method in brief: as §1

HCT-116 = details: Colon cancer HCT-116; single dose 10^−5 M
Method in brief: as §1

HOP-92 = details: Non-small cell lung cancer HOP-92; single dose 10^−5 M
Method in brief: as §1

HT29 = details: Colon cancer HT29; single dose 10^−5 M
Method in brief: as §1

MDA-MB-231/ATCC = details: Breast cancer MDA-MB-231/ATCC; single dose 10^−5 M
Method in brief: as §1

MDA-MB-435 = details: Melanoma MDA-MB-435; single dose 10^−5 M
Method in brief: as §1

MOLT-4 = details: Leukaemia MOLT-4; single dose 10^−5 M
Method in brief: as §1

NCI-H226 = details: Non-small cell lung cancer NCI-H226; single dose 10^−5 M
Method in brief: as §1

NCI-H23 = details: Non-small cell lung cancer NCI-H23; single dose 10^−5 M
Method in brief: as §1

NCI-H322M = details: Non-small cell lung cancer NCI-H322M; single dose 10^−5 M
Method in brief: as §1

NCI-H460 = details: Non-small cell lung cancer NCI-H460; single dose 10^−5 M
Method in brief: as §1

NCI/ADR-RES = details: Ovarian cancer NCI/ADR-RES; single dose 10^−5 M
Method in brief: as §1

OVCAR-3 = details: Ovarian cancer OVCAR-3; single dose 10^−5 M
Method in brief: as §1

OVCAR-8 = details: Ovarian cancer OVCAR-8; single dose 10^−5 M
Method in brief: as §1

PC-3 = details: Prostate cancer PC-3; single dose 10^−5 M
Method in brief: as §1

SF-268 = details: CNS cancer SF-268; single dose 10^−5 M
Method in brief: as §1

SK-MEL-28 = details: Melanoma SK-MEL-28; single dose 10^−5 M
Method in brief: as §1

SK-MEL-5 = details: Melanoma SK-MEL-5; single dose 10^−5 M
Method in brief: as §1

SNB-19 = details: CNS cancer SNB-19; single dose 10^−5 M
Method in brief: as §1

SR = details: Leukaemia SR; single dose 10^−5 M
Method in brief: as §1

SW-620 = details: Colon cancer SW-620; single dose 10^−5 M
Method in brief: as §1

T-47D = details: Breast cancer T-47D; single dose 10^−5 M
Method in brief: as §1

TK-10 = details: Renal cancer TK-10; single dose 10^−5 M
Method in brief: as §1

U251 = details: CNS cancer U251; single dose 10^−5 M
Method in brief: as §1

UACC-257 = details: Melanoma UACC-257; single dose 10^−5 M
Method in brief: as §1

Structure (SMILES) | GI% at 10^−5 M (A498) | GI% at 10^−5 M (A549/ATCC) | GI% at 10^−5 M (ACHN) | GI% at 10^−5 M (BT-549) | GI% at 10^−5 M (COLO 205) | GI% at 10^−5 M (EKVX) | GI% at 10^−5 M (HCC-2998) | GI% at 10^−5 M (HCT-116) | GI% at 10^−5 M (HT29) | GI% at 10^−5 M (MDA-MB-231/ATCC) | GI% at 10^−5 M (MDA-MB-435) | GI% at 10^−5 M (MOLT-4) | GI% at 10^−5 M (NCI-H226) | GI% at 10^−5 M (NCI-H23) | GI% at 10^−5 M (NCI-H322M) | GI% at 10^−5 M (NCI-H460) | GI% at 10^−5 M (NCI/ADR-RES) | GI% at 10^−5 M (OVCAR-3) | GI% at 10^−5 M (OVCAR-8) | GI% at 10^−5 M (PC-3) | further results
COc1cc(C=Nn2c(COc3ccccc3)nc3ccccc3c2=O)ccc1O [Compound 6a, 3-((4-hydroxy-3-methoxybenzylidene)amino)-2-(phenoxymethyl)quinazolin-4(3H)-one] | – (– means GI < 10%) | – (– means GI < 10%) | – (– means GI < 10%) | – (– means GI < 10%) | – (– means GI < 10%) | – (– means GI < 10%) | – (– means GI < 10%) | – (– means GI < 10%) | – (– means GI < 10%) | 10.92% | – (– means GI < 10%) | – (– means GI < 10%) | – (– means GI < 10%) | – (– means GI < 10%) | – (– means GI < 10%) | – (– means GI < 10%) | – (– means GI < 10%) | – (– means GI < 10%) | – (– means GI < 10%) | – (– means GI < 10%) | GI% at 10^−5 M (HOP-92): – (– means GI < 10%); GI% at 10^−5 M (SF-268): – (– means GI < 10%); GI% at 10^−5 M (SK-MEL-28): – (– means GI < 10%); GI% at 10^−5 M (SK-MEL-5): – (– means GI < 10%); GI% at 10^−5 M (SNB-19): – (– means GI < 10%); GI% at 10^−5 M (SR): – (– means GI < 10%); GI% at 10^−5 M (SW-620): – (– means GI < 10%); GI% at 10^−5 M (T-47D): – (– means GI < 10%); GI% at 10^−5 M (TK-10): – (– means GI < 10%); GI% at 10^−5 M (U251): – (– means GI < 10%); GI% at 10^−5 M (UACC-257): – (– means GI < 10%)
O=c1c2ccccc2nc(COc2ccccc2)n1NS(=O)(=O)c1ccc(Cl)cc1 [Compound 5c, 4-chloro-N-(4-oxo-2-(phenoxymethyl)quinazolin-3(4H)-yl)benzenesulfonamide] | 36.68% | 14.05% | – (– means GI < 10%) | – (– means GI < 10%) | – (– means GI < 10%) | 25.19% | 22.36% | 16.40% | 20.01% | 32.6% | 94.53% | 30.51% | 17.00% | 17.19% | 17.13% | – (– means GI < 10%) | 26.99% | – (– means GI < 10%) | – (– means GI < 10%) | 17.26% | GI% at 10^−5 M (SF-268): 11.40%; GI% at 10^−5 M (SK-MEL-28): 12.91%; GI% at 10^−5 M (SK-MEL-5): – (– means GI < 10%); GI% at 10^−5 M (SNB-19): 20.21%; GI% at 10^−5 M (SR): 42.42%; GI% at 10^−5 M (SW-620): 30.94%; GI% at 10^−5 M (T-47D): 25.18%; GI% at 10^−5 M (TK-10): – (– means GI < 10%); GI% at 10^−5 M (U251): 12.24%; GI% at 10^−5 M (UACC-257): – (– means GI < 10%)
